Measurements from ChEMBL document CHEMBL5370535, “Thiazolyl hydrazineylidenyl indolones as unique potential multitargeting broad-spectrum antimicrobial agents” (Eur J Med Chem, 2023).
Converted amounts (≈) assume the structure as drawn.

Key:
Format in all cases: functional
[1] = test system: Staphylococcus aureus; assay: Antibacterial activity against Staphylococcus aureus 29213 assessed as bacterial growth inhibition incubated for 24 hrs by CLSI based two serial dilution assay
[2] = test system: Staphylococcus aureus; assay: Antibacterial activity against Staphylococcus aureus 25923 assessed as bacterial growth inhibition incubated for 24 hrs by CLSI based two serial dilution assay
[3] = test system: Candida albicans; assay: Antifungal activity against Candida albicans assessed as inhibition of fungal growth incubated for 24 hrs by CLSI based two serial dilution assay
[4] = test system: Candida parapsilosis; assay: Antifungal activity against Candida parapsilosis ATCC 22019 assessed as inhibition of fungal growth incubated for 24 hrs by CLSI based two serial dilution assay; conditions: Lodderomyces parapsilosis
[5] = test system: Klebsiella pneumoniae; assay: Antibacterial activity against Klebsiella pneumoniae assessed as bacterial growth inhibition incubated for 24 hrs by CLSI based two serial dilution assay
[6] = test system: Aspergillus fumigatus; assay: Antifungal activity against Aspergillus fumigatus assessed as inhibition of fungal growth incubated for 24 hrs by CLSI based two serial dilution assay
[7] = test system: Staphylococcus aureus; assay: Antibacterial activity against Staphylococcus aureus assessed as bacterial growth inhibition incubated for 24 hrs by CLSI based two serial dilution assay
[8] = test system: Pseudomonas aeruginosa; assay: Antibacterial activity against Pseudomonas aeruginosa assessed as bacterial growth inhibition incubated for 24 hrs by CLSI based two serial dilution assay
[9] = test system: Pseudomonas aeruginosa; assay: Antibacterial activity against Pseudomonas aeruginosa ATCC 27853 assessed as bacterial growth inhibition incubated for 24 hrs by CLSI based two serial dilution assay
[10] = test system: Escherichia coli; assay: Antibacterial activity against Escherichia coli 25922 assessed as bacterial growth inhibition incubated for 24 hrs by CLSI based two serial dilution assay
[11] = test system: Acinetobacter baumannii; assay: Antibacterial activity against Acinetobacter baumannii assessed as bacterial growth inhibition incubated for 24 hrs by CLSI based two serial dilution assay
[12] = test system: Candida tropicalis; assay: Antifungal activity against Candida tropicalis assessed as inhibition of fungal growth incubated for 24 hrs by CLSI based two serial dilution assay
[13] = test system: Staphylococcus aureus; assay: Antibacterial activity against methicillin-resistant Staphylococcus aureus assessed as bacterial growth inhibition incubated for 24 hrs by CLSI based two serial dilution assay
[14] = test system: Candida albicans; assay: Antifungal activity against Candida albicans ATCC 90023 assessed as inhibition of fungal growth incubated for 24 hrs by CLSI based two serial dilution assay
[15] = test system: Enterococcus faecalis; assay: Antibacterial activity against Enterococcus faecalis assessed as bacterial growth inhibition incubated for 24 hrs by CLSI based two serial dilution assay
[16] = test system: Escherichia coli; assay: Antibacterial activity against Escherichia coli assessed as bacterial growth inhibition incubated for 24 hrs by CLSI based two serial dilution assay

Row | Compound | MIC [1] | MIC [2] | MIC [3] | MIC [4] | MIC [5] | MIC [6] | MIC [7] | MIC [8] | MIC [9] | MIC [10] | MIC [11] | MIC [12] | MIC [13] | MIC [14] | MIC [15] | MIC [16]
1 | CCCCN1C(=O)/C(=N\Nc2nccs2)c2cc(C)ccc21 | 2 µM (≈ 0.629 µg/mL) | 8 µM (≈ 2.52 µg/mL) | 4 µM (≈ 1.26 µg/mL) | 1 µM (≈ 0.314 µg/mL) | 2 µM (≈ 0.629 µg/mL) | 2 µM (≈ 0.629 µg/mL) | 4 µM (≈ 1.26 µg/mL) | 16 µM (≈ 5.03 µg/mL) | 32 µM (≈ 10.1 µg/mL) | 4 µM (≈ 1.26 µg/mL) | 2 µM (≈ 0.629 µg/mL) | 2 µM (≈ 0.629 µg/mL) | 4 µM (≈ 1.26 µg/mL) | 4 µM (≈ 1.26 µg/mL) | 32 µM (≈ 10.1 µg/mL) | 4 µM (≈ 1.26 µg/mL)
2 | O=C1/C(=N\Nc2nccs2)c2ccccc2N1Cc1ccc(Cl)cc1 | 4 µM (≈ 1.48 µg/mL) | 4 µM (≈ 1.48 µg/mL) | 16 µM (≈ 5.9 µg/mL) | 4 µM (≈ 1.48 µg/mL) | 32 µM (≈ 11.8 µg/mL) | 16 µM (≈ 5.9 µg/mL) | 4 µM (≈ 1.48 µg/mL) | 16 µM (≈ 5.9 µg/mL) | 128 µM (≈ 47.2 µg/mL) | 32 µM (≈ 11.8 µg/mL) | 64 µM (≈ 23.6 µg/mL) | 16 µM (≈ 5.9 µg/mL) | 64 µM (≈ 23.6 µg/mL) | 32 µM (≈ 11.8 µg/mL) | 64 µM (≈ 23.6 µg/mL) | 128 µM (≈ 47.2 µg/mL)
3 | CCCCN1C(=O)/C(=N\Nc2nccs2)c2ccc(Cl)cc21 | 4 µM (≈ 1.34 µg/mL) | 0.5 µM (≈ 0.167 µg/mL) | 0.5 µM (≈ 0.167 µg/mL) | 0.5 µM (≈ 0.167 µg/mL) | 0.5 µM (≈ 0.167 µg/mL) | 1 µM (≈ 0.335 µg/mL) | 1 µM (≈ 0.335 µg/mL) | 0.5 µM (≈ 0.167 µg/mL) | 4 µM (≈ 1.34 µg/mL) | 4 µM (≈ 1.34 µg/mL) | 0.5 µM (≈ 0.167 µg/mL) | 1 µM (≈ 0.335 µg/mL) | 0.5 µM (≈ 0.167 µg/mL) | 2 µM (≈ 0.67 µg/mL) | 2 µM (≈ 0.67 µg/mL) | 1 µM (≈ 0.335 µg/mL)
4 | CCCCN1C(=O)/C(=N\Nc2nc(C)c(C(=O)OCC)s2)c2ccccc21 | 64 µM (≈ 24.7 µg/mL) | 512 µM (≈ 198 µg/mL) | 512 µM (≈ 198 µg/mL) | 256 µM (≈ 98.9 µg/mL) | 256 µM (≈ 98.9 µg/mL) | 128 µM (≈ 49.5 µg/mL) | 64 µM (≈ 24.7 µg/mL) | 1 µM (≈ 0.386 µg/mL) | 256 µM (≈ 98.9 µg/mL) | 128 µM (≈ 49.5 µg/mL) | 128 µM (≈ 49.5 µg/mL) | 128 µM (≈ 49.5 µg/mL) | 128 µM (≈ 49.5 µg/mL) | 512 µM (≈ 198 µg/mL) | 256 µM (≈ 98.9 µg/mL) | 256 µM (≈ 98.9 µg/mL)
5 | O=C1/C(=N\Nc2nccs2)c2ccccc2N1Cc1ccccc1F | 256 µM (≈ 90.2 µg/mL) | 4 µM (≈ 1.41 µg/mL) | 64 µM (≈ 22.6 µg/mL) | 128 µM (≈ 45.1 µg/mL) | 512 µM (≈ 180 µg/mL) | 128 µM (≈ 45.1 µg/mL) | 4 µM (≈ 1.41 µg/mL) | 256 µM (≈ 90.2 µg/mL) | 512 µM (≈ 180 µg/mL) | 256 µM (≈ 90.2 µg/mL) | 512 µM (≈ 180 µg/mL) | 16 µM (≈ 5.64 µg/mL) | 8 µM (≈ 2.82 µg/mL) | 128 µM (≈ 45.1 µg/mL) | 8 µM (≈ 2.82 µg/mL) | 512 µM (≈ 180 µg/mL)
6 | CCCCN1C(=O)/C(=N\Nc2nc(-c3ccc(F)cc3F)cs2)c2ccccc21 | 4 µM (≈ 1.65 µg/mL) | 512 µM (≈ 211 µg/mL) | 512 µM (≈ 211 µg/mL) | 512 µM (≈ 211 µg/mL) | 512 µM (≈ 211 µg/mL) | 512 µM (≈ 211 µg/mL) | 4 µM (≈ 1.65 µg/mL) | 2 µM (≈ 0.825 µg/mL) | 512 µM (≈ 211 µg/mL) | 512 µM (≈ 211 µg/mL) | 512 µM (≈ 211 µg/mL) | 512 µM (≈ 211 µg/mL) | 512 µM (≈ 211 µg/mL) | 512 µM (≈ 211 µg/mL) | 512 µM (≈ 211 µg/mL) | 512 µM (≈ 211 µg/mL)
7 | CCCCN1C(=O)/C(=N\Nc2nc(C)c(C(C)=O)s2)c2ccccc21 | 16 µM (≈ 5.7 µg/mL) | 512 µM (≈ 183 µg/mL) | 512 µM (≈ 183 µg/mL) | 512 µM (≈ 183 µg/mL) | 512 µM (≈ 183 µg/mL) | 512 µM (≈ 183 µg/mL) | 16 µM (≈ 5.7 µg/mL) | 16 µM (≈ 5.7 µg/mL) | 512 µM (≈ 183 µg/mL) | 512 µM (≈ 183 µg/mL) | 512 µM (≈ 183 µg/mL) | 512 µM (≈ 183 µg/mL) | 512 µM (≈ 183 µg/mL) | 512 µM (≈ 183 µg/mL) | 512 µM (≈ 183 µg/mL) | 512 µM (≈ 183 µg/mL)
8 | CCCCN1C(=O)/C(=N\Nc2nccs2)c2c(Cl)cc(Cl)cc21 | 2 µM (≈ 0.739 µg/mL) | 1 µM (≈ 0.369 µg/mL) | 0.5 µM (≈ 0.185 µg/mL) | 256 µM (≈ 94.5 µg/mL) | 1 µM (≈ 0.369 µg/mL) | 128 µM (≈ 47.3 µg/mL) | 2 µM (≈ 0.739 µg/mL) | 2 µM (≈ 0.739 µg/mL) | 512 µM (≈ 189 µg/mL) | 1 µM (≈ 0.369 µg/mL) | 512 µM (≈ 189 µg/mL) | 1 µM (≈ 0.369 µg/mL) | 1 µM (≈ 0.369 µg/mL) | 2 µM (≈ 0.739 µg/mL) | 4 µM (≈ 1.48 µg/mL) | 32 µM (≈ 11.8 µg/mL)
9 | CCCN1C(=O)/C(=N\Nc2nccs2)c2ccccc21 | 4 µM (≈ 1.15 µg/mL) | 4 µM (≈ 1.15 µg/mL) | 64 µM (≈ 18.3 µg/mL) | 32 µM (≈ 9.16 µg/mL) | 32 µM (≈ 9.16 µg/mL) | 16 µM (≈ 4.58 µg/mL) | 16 µM (≈ 4.58 µg/mL) | 2 µM (≈ 0.573 µg/mL) | 32 µM (≈ 9.16 µg/mL) | 4 µM (≈ 1.15 µg/mL) | 32 µM (≈ 9.16 µg/mL) | 32 µM (≈ 9.16 µg/mL) | 32 µM (≈ 9.16 µg/mL) | 128 µM (≈ 36.7 µg/mL) | 16 µM (≈ 4.58 µg/mL) | 128 µM (≈ 36.7 µg/mL)
10 | O=C1/C(=N\Nc2nccs2)c2ccccc2N1Cc1ccc(Cl)cc1Cl | 2 µM (≈ 0.807 µg/mL) | 4 µM (≈ 1.61 µg/mL) | 32 µM (≈ 12.9 µg/mL) | 32 µM (≈ 12.9 µg/mL) | 128 µM (≈ 51.6 µg/mL) | 16 µM (≈ 6.45 µg/mL) | 4 µM (≈ 1.61 µg/mL) | 64 µM (≈ 25.8 µg/mL) | 64 µM (≈ 25.8 µg/mL) | 128 µM (≈ 51.6 µg/mL) | 64 µM (≈ 25.8 µg/mL) | 64 µM (≈ 25.8 µg/mL) | 128 µM (≈ 51.6 µg/mL) | 16 µM (≈ 6.45 µg/mL) | 64 µM (≈ 25.8 µg/mL) | 64 µM (≈ 25.8 µg/mL)
11 | CCCCN1C(=O)/C(=N\Nc2nccs2)c2cc(Cl)ccc21 | 1 µM (≈ 0.335 µg/mL) | 1 µM (≈ 0.335 µg/mL) | 0.5 µM (≈ 0.167 µg/mL) | 0.5 µM (≈ 0.167 µg/mL) | 0.5 µM (≈ 0.167 µg/mL) | 4 µM (≈ 1.34 µg/mL) | 1 µM (≈ 0.335 µg/mL) | 0.5 µM (≈ 0.167 µg/mL) | 0.5 µM (≈ 0.167 µg/mL) | 0.5 µM (≈ 0.167 µg/mL) | 1 µM (≈ 0.335 µg/mL) | 16 µM (≈ 5.36 µg/mL) | 1 µM (≈ 0.335 µg/mL) | 2 µM (≈ 0.67 µg/mL) | 32 µM (≈ 10.7 µg/mL) | 1 µM (≈ 0.335 µg/mL)
